In US8802597B2, “Herbicidal pyrimidines” (E I du Pont de Nemours and Company, priority 2003, dated 2014):

Columns and labels:
Type in all cases: in vivo
[1] = test system: barnyardgrass (Echinochloa crus-galli); assay: Test A pre/postemergence
Method in brief: (§1)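 Compared with untreated controls, treated plants were visually rated for injury on a 0 (none) to 100 (complete control) scale about ten days after spraying. Pre- and postemergence applications used one solvent/surfactant formulation; postemergence plants measured 2–10 cm.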

[2] = test system: giant foxtail (Setaria faberi); assay: Test A pre/postemergence
Method in brief: as §1

[3] = test system: velvetleaf (Abutilon theophrasti); assay: Test A pre/postemergence
Method in brief: as §1

[4] = test system: morningglory (Ipomoea spp.); assay: Test A pre/postemergence
Method in brief: as §1

[5] = test system: redroot pigweed (Amaranthus retroflexus); assay: Test A pre/postemergence
Method in brief: as §1

[6] = test system: crabgrass (Digitaria sanguinalis); assay: Test A pre/postemergence
Method in brief: as §1

[7] = test system: barnyardgrass (Echinochloa crus-galli); assay: Test E flooded paddy water application; conditions: Flood, 21 days, scale 0 to 100 (0 no effect, 100 complete control)
Method in brief: (§2)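 Greenhouse pots of Tama silt loam with weeds and rice at 2.0–2.5-leaf stage, flooded to 3 cm; compounds applied directly into paddy water, depth maintained. Visual rating versus untreated controls after 21 days, 0 (no effect) to 100 (complete control); 29.5/26.7 °C, 16-h photoperiod.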

[8] = test system: early watergrass (Echinochloa oryzoides); assay: Test E flooded paddy water application; conditions: Flood, 21 days, scale 0 to 100 (0 no effect, 100 complete control)
Method in brief: as §2

[9] = test system: bearded (brdd.) sprangletop (Leptochloa fusca ssp. fascicularis); assay: Test E flooded paddy water application; conditions: Flood, 21 days, scale 0 to 100 (0 no effect, 100 complete control)
Method in brief: as §2

[10] = test system: ducksalad (Heteranthera limosa); assay: Test E flooded paddy water application; conditions: Flood, 21 days, scale 0 to 100 (0 no effect, 100 complete control)
Method in brief: as §2

[11] = test system: water seeded rice seedlings (Oryza sativa cv. ‘Japonica-M202’); assay: Test E flooded paddy water application; conditions: Flood, 21 days, scale 0 to 100 (0 no effect, 100 complete control)
Method in brief: as §2

[12] = test system: smallflower umbrella sedge (Cyperus difformis); assay: Test E flooded paddy water application; conditions: Flood, 21 days, scale 0 to 100 (0 no effect, 100 complete control)
Method in brief: as §2

[13] = test system: purple redstem (Ammannia coccinea); assay: Test E flooded paddy water application; conditions: Flood, 21 days, scale 0 to 100 (0 no effect, 100 complete control)
Method in brief: as §2

[14] = test system: late watergrass (Echinochloa oryzicola); assay: Test E flooded paddy water application; conditions: Flood, 21 days, scale 0 to 100 (0 no effect, 100 complete control)
Method in brief: as §2

[15] = test system: transplanted rice seedlings (Oryza sativa cv. ‘Japonica-M202’); assay: Test E flooded paddy water application; conditions: Flood, 21 days, scale 0 to 100 (0 no effect, 100 complete control)
Method in brief: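 Response scored visually on a 0–100 scale (100 = complete control) at 21 days against untreated pots. Treatment was into paddy water 3 cm deep over silt loam, with plants at the 2.0–2.5-leaf stage, grown under 16-h light at 29.5/26.7 °C day/night.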

[16] = test system: rice flatsedge (Cyperus iria); assay: Test E flooded paddy water application; conditions: Flood, 21 days, scale 0 to 100 (0 no effect, 100 complete control)
Method in brief: as §2

[17] = test system: junglerice (Echinochloa colona); assay: Test E flooded paddy water application; conditions: Flood, 21 days, scale 0 to 100 (0 no effect, 100 complete control)
Method in brief: as §2

[18] = Postemergence, 125 g ai/ha, 0 to 100 scale (0 no effect, 100 complete control)
[19] = Postemergence, 500 g ai/ha, 0 to 100 scale (0 no effect, 100 complete control)
[20] = Preemergence, 125 g ai/ha, 0 to 100 scale where 0 is no effect and 100 is complete control, approximately ten days
[21] = Preemergence, 500 g ai/ha, 0 to 100 scale where 0 is no effect and 100 is complete control, approximately ten days

SMILES: COC(=O)c1nc(-c2ccc(C)cc2)nc(N)c1Cl [Compound 84]
- Plant response rating, Barnyardgrass [1, 18]: 55
- Plant response rating, Barnyardgrass [1, 19]: 80
- Plant response rating, Barnyardgrass [1, 20]: 0
- Plant response rating, Barnyardgrass [1, 21]: 25
- Plant response rating, Foxtail, Giant [2, 18]: 0
- Plant response rating, Foxtail, Giant [2, 19]: 20
- Plant response rating, Foxtail, Giant [2, 20]: 0
- Plant response rating, Foxtail, Giant [2, 21]: 20
- Plant response rating, Velvetleaf [3, 18]: 75
- Plant response rating, Velvetleaf [3, 19]: 90
- Plant response rating, Velvetleaf [3, 20]: 15
- Plant response rating, Velvetleaf [3, 21]: 70
- Plant response rating, Morningglory [4, 18]: 5
- Plant response rating, Morningglory [4, 19]: 20
- Plant response rating, Morningglory [4, 20]: 0
- Plant response rating, Morningglory [4, 21]: 0
- Plant response rating, Pigweed [5, 18]: 60
- Plant response rating, Pigweed [5, 19]: 65
- Plant response rating, Pigweed [5, 20]: 0
- Plant response rating, Pigweed [5, 21]: 80
- Plant response rating, Crabgrass [6, 18]: 0
- Plant response rating, Crabgrass [6, 19]: 10
- Plant response rating, Crabgrass [6, 20]: 0
- Plant response rating, Crabgrass [6, 21]: 15
- Barnyardgrass plant response rating ([7]; 32 g ai/ha): 0
- Barnyardgrass plant response rating ([7]; 64 g ai/ha): 0
- Barnyardgrass plant response rating ([7]; 125 g ai/ha): 20
- Barnyardgrass plant response rating ([7]; 250 g ai/ha): 85
- Plant response rating, Barnyardgrass ([7]; 16 g ai/ha): 0
- Watergrass, Early plant response rating ([8]; 32 g ai/ha): 0
- Watergrass, Early plant response rating ([8]; 64 g ai/ha): 10
- Watergrass, Early plant response rating ([8]; 125 g ai/ha): 20
- Watergrass, Early plant response rating ([8]; 250 g ai/ha): 30
- Plant response rating, Watergrass, Early ([8]; 16 g ai/ha): 0
- Sprangletop, Brdd. plant response rating ([9]; 32 g ai/ha): 0
- Sprangletop, Brdd. plant response rating ([9]; 64 g ai/ha): 0
- Sprangletop, Brdd. plant response rating ([9]; 125 g ai/ha): 0
- Sprangletop, Brdd. plant response rating ([9]; 250 g ai/ha): 40
- Plant response rating, Sprangletop, Brdd. ([9]; 16 g ai/ha): 0
- Ducksalad plant response rating ([10]; 32 g ai/ha): 100
- Ducksalad plant response rating ([10]; 64 g ai/ha): 100
- Ducksalad plant response rating ([10]; 125 g ai/ha): 100
- Ducksalad plant response rating ([10]; 250 g ai/ha): 100
- Plant response rating, Ducksalad ([10]; 16 g ai/ha): 100
- Rice, Water Seeded plant response rating ([11]; 32 g ai/ha): 0
- Rice, Water Seeded plant response rating ([11]; 64 g ai/ha): 0
- Rice, Water Seeded plant response rating ([11]; 125 g ai/ha): 0
- Rice, Water Seeded plant response rating ([11]; 250 g ai/ha): 30
- Plant response rating, Rice, Water Seeded ([11]; 16 g ai/ha): 0
- Sedge, Umbrella plant response rating ([12]; 32 g ai/ha): 80
- Sedge, Umbrella plant response rating ([12]; 64 g ai/ha): 80
- Sedge, Umbrella plant response rating ([12]; 125 g ai/ha): 90
- Sedge, Umbrella plant response rating ([12]; 250 g ai/ha): 100
- Plant response rating, Sedge, Umbrella ([12]; 16 g ai/ha): 70
- Redstem plant response rating ([13]; 32 g ai/ha): 20
- Redstem plant response rating ([13]; 64 g ai/ha): 20
- Redstem plant response rating ([13]; 125 g ai/ha): 70
- Redstem plant response rating ([13]; 250 g ai/ha): 100
- Plant response rating, Redstem ([13]; 16 g ai/ha): 0
- Watergrass, Late plant response rating ([14]; 32 g ai/ha): 0
- Watergrass, Late plant response rating ([14]; 64 g ai/ha): 0
- Watergrass, Late plant response rating ([14]; 125 g ai/ha): 0
- Watergrass, Late plant response rating ([14]; 250 g ai/ha): 20
- Plant response rating, Watergrass, Late ([14]; 16 g ai/ha): 0
- Rice, Transplanted plant response rating ([15]; 32 g ai/ha): 0
- Rice, Transplanted plant response rating ([15]; 64 g ai/ha): 0
- Rice, Transplanted plant response rating ([15]; 125 g ai/ha): 0
- Rice, Transplanted plant response rating ([15]; 250 g ai/ha): 20
- Plant response rating, Rice, Transplanted ([15]; 16 g ai/ha): 0
- Flatsedge, Rice plant response rating ([16]; 32 g ai/ha): 35
- Flatsedge, Rice plant response rating ([16]; 64 g ai/ha): 60
- Flatsedge, Rice plant response rating ([16]; 125 g ai/ha): 60
- Flatsedge, Rice plant response rating ([16]; 250 g ai/ha): 80
- Plant response rating, Flatsedge, Rice ([16]; 16 g ai/ha): 25
- Junglerice plant response rating ([17]; 32 g ai/ha): 0
- Junglerice plant response rating ([17]; 64 g ai/ha): 0
- Junglerice plant response rating ([17]; 125 g ai/ha): 50
- Junglerice plant response rating ([17]; 250 g ai/ha): 50
- Plant response rating, Junglerice ([17]; 16 g ai/ha): 0
